We go through 40 molecules from ChEMBL document CHEMBL3044948, “Synthesis and Herbicidal Activity of N-(1-Arylethenyl)-2-chloroacetamides” (Agric Biol Chem, 1991).

The test system of assay [1] is Echinochloa oryzicola. Nature of the assay: Herbicidal activity against Echinochloa oryzicola at 1 g a.i/a measured after 3 weeks. It counts as functional, organism-based.
Assay [2] has as its system Echinochloa oryzicola. Nature of the assay: Herbicidal activity against Echinochloa oryzicola at 10 g a.i/a measured after 3 weeks. The format is functional, organism-based.

The source made the active and inactive calls. The rule behind the calls is not given here.

For `CC(C)=C(c1ccccc1)N(C)C(=O)CCl`, the result in assay [1] and in assay [2] was Active.

Regarding `C=C(c1ccccc1)N(C(=O)CCl)c1ccccc1OC`, the outcome in assay [2] was Active. Consider `C/C=C(\c1ccccc1)N(CCCC)C(=O)CCl`, for which the result in assay [1] was inactive. The result in assay [2] was Active. With `C=C(c1ccccc1)N(C(=O)CCl)c1c(CC)cccc1CC`, the outcome in assay [1] was inactive. Also, in assay [2], the result was Active. In the same order, the values of `CCCN(C(=O)CCl)C(=C(C)C)c1ccccc1` are “inactive” and “Active”. `CC(C)=C(c1ccccc1)N(C(=O)CCl)C(C)C`: in assay [2], the outcome was Active. `CC(C)=C(c1ccccc1)N(Cc1ccco1)C(=O)CCl`: the outcome in assay [1] and in assay [2] was Active. Consider `C=C(c1ccccc1)N(C(=O)CCl)c1ccccc1`, for which the result in assay [2] was inactive. Still for that read-out and setting: with `C=C(c1ccccc1)N(C(=O)CCl)c1cccc2ccccc12` the entry was “inactive”; with `CC(C)=C(c1ccccc1)N(C(=O)CCl)c1ccc(Cl)cc1`, “Active”.

Regarding `C=C(c1ccc(OC)cc1)N(C(=O)CCl)c1c(C)cccc1C`, the result in assay [1] was inactive. In addition, the result in assay [2] was Active. In the same order, the values of `C=C(c1ccccc1OC)N(C(=O)CCl)c1c(C)cccc1C` are “Active” and “Active”. In the same order, the values of `C=C(c1ccc(Cl)cc1)N(C(=O)CCl)c1c(C)cccc1C` are “inactive” and “Active”. On to `C=C(c1ccccc1)N(C(=O)CCl)c1ccccc1C`, for which the outcome in assay [2] was inactive. For the molecule `CC=C(c1ccccc1)N(C(=O)CCl)c1c(C)cccc1C` (mixture of isomers), the outcome in assay [1] was inactive. In assay [2], the result was Active. In the same order, the values of `CCN(C(=O)CCl)C(=C(C)C)c1ccccc1` are “Active” and “Active”.

On to `C=C(c1ccccc1C)N(C(=O)CCl)c1c(C)cccc1C`, for which the result in assay [1] and in assay [2] was Active.

As for `C=C(c1cccc(Br)c1)N(C(=O)CCl)c1c(C)cccc1C`, the outcome in assay [1] was inactive. Further, the result in assay [2] was Active. In the same order, the values of `C=CCN(C(=O)CCl)/C(=C/C)c1ccccc1` are “inactive” and “Active”.

Take `C=C(c1ccccc1Cl)N(C(=O)CCl)c1c(C)cccc1C`: the result in assay [1] and in assay [2] was Active. `C=C(c1ccc(Cl)c(Cl)c1)N(C(=O)CCl)c1c(C)cccc1C`: the result in assay [2] was inactive. Same read-out and setting: the entry for `C=C(c1cccc([N+](=O)[O-])c1)N(C(=O)CCl)c1c(C)cccc1C` is “Active”; for `CCC(C)N(C(=O)CCl)C(=C(C)C)c1ccccc1` (stereo not given) it is “inactive”.

As for `C=C(c1ccccc1)N(C(=O)CCl)c1c(C)cccc1CC`, the outcome in assay [1] and in assay [2] was Active. For `C=C(c1ccc(C#N)cc1)N(C(=O)CCl)c1c(C)cccc1C`, the outcome in assay [1] was inactive. Further, in assay [2], the result was Active.

As for `C=C(c1ccccc1)N(C(=O)CCl)c1cc(C)nn1C`, the outcome in assay [2] was inactive. On the same count and under the same terms, with `C=C(c1ccccc1)N(CC1CCCO1)C(=O)CCl` (stereo not given) the entry was “Active”. Take `CCCCCCN(C(=O)CCl)C(=C(C)C)c1ccccc1`: the outcome in assay [1] and in assay [2] was Active. For `CC(C)=C(c1ccccc1)N(Cc1ccccc1)C(=O)CCl`, the outcome in assay [1] and in assay [2] was Active. As to `C=CCN(C(=O)CCl)C(=C(C)C)c1ccccc1`, the result in assay [1] and in assay [2] was Active. On to `C=C(c1ccc2ccccc2c1)N(C(=O)CCl)c1c(C)cccc1C`, for which the result in assay [2] was inactive.

Take `C=C(c1ccccc1)N(C(=O)CCl)c1c(Cl)cccc1Cl`: the result in assay [2] was inactive. The same measure, in the same setting: the entry for `CC(C)=C(c1ccccc1)N(C(=O)CCl)c1c(C)cccc1C` is “inactive”; for `C=C(c1ccco1)N(C(=O)CCl)c1c(C)cccc1C` it is “Active”; for `CC(C)=C(c1ccccc1)N(C(=O)CCl)c1ccccc1` it is “inactive”. As for `C=C(c1ccc(OC)cc1)N(CCCCCC)C(=O)CCl`, the result in assay [2] was Active. The same measure, in the same setting: the entry for `CC(C)=C(c1ccccc1)N(CC(C)C)C(=O)CCl` is “inactive”; for `C=C(c1ccc(SC)s1)N(C(=O)CCl)c1c(C)cccc1C` it is “inactive”. As for `C=C(c1ccccc1)N(C(=O)CCl)c1c(C)cccc1C`, the result in assay [1] and in assay [2] was Active. `C=C(c1cccn1C)N(C(=O)CCl)c1c(C)cccc1C`: the result in assay [2] was inactive.
